In the NIST ThermoML archive (doi:10.1021/je100078w):

Assays:
[1] = Liquid
[2] = wn = mass fraction of the nth substance listed; settings: 101 kPa, Liquid

C[NH+](CCO)CCO.F[B-](F)(F)F
[1], 101.33 kPa
Settings | mass density [kg/m3] | viscosity [mPa·s]
303.15 K | 1425.56 | 208.8
313.15 K | 1418.1 | 117.7
323.15 K | 1410.63 | 71.79
333.15 K | 1403.2 | 46.85
343.15 K | 1395.85 | 32.35

C[NH+](CCO)CCO.F[B-](F)(F)F + O
[2]
Settings | mass density, 303.15 K [kg/m3] | mass density, 313.15 K [kg/m3] | mass density, 323.15 K [kg/m3] | mass density, 333.15 K [kg/m3] | mass density, 343.15 K [kg/m3] | viscosity, 303.15 K [mPa·s] | viscosity, 313.15 K [mPa·s] | viscosity, 323.15 K [mPa·s] | viscosity, 333.15 K [mPa·s] | viscosity, 343.15 K [mPa·s]
w1 = 0.3001 | 1084.71 | 1075.11 | 1067.02 | 1058.01 | 1047.87 | – | – | – | – | –
w2 = 0.3001 | – | – | – | – | – | 1.245 | 1.041 | 0.8831 | 0.7874 | 0.7196

CCCCn1cc[n+](C)c1.F[B-](F)(F)F [1-butyl-3-methylimidazolium tetrafluoroborate]
[1], 101.33 kPa
Settings | mass density [kg/m3] | viscosity [mPa·s]
303.15 K | 1195.7 | 68.9
313.15 K | 1188.62 | 44.73
323.15 K | 1181.59 | 30.81
333.15 K | 1174.6 | 22.28
343.15 K | 1167.67 | 16.75

CCCCn1cc[n+](C)c1.F[B-](F)(F)F [1-butyl-3-methylimidazolium tetrafluoroborate] + O
[2], w1 = 0.2998
Settings | mass density [kg/m3] | viscosity [mPa·s]
303.15 K | 1045.35 | 1.292
313.15 K | 1039.84 | 1.046
323.15 K | 1033.76 | 0.8731
333.15 K | 1027.74 | 0.7473
343.15 K | 1021.18 | 0.6549

CCCCn1cc[n+](C)c1.F[B-](F)(F)F [1-butyl-3-methylimidazolium tetrafluoroborate] + OCCN(CCO)CCO
[2], w2 = 0
Settings | mass density [kg/m3] | viscosity [mPa·s]
303.15 K | 1195.7 | 68.9
313.15 K | 1188.62 | 44.73
323.15 K | 1181.59 | 30.81
333.15 K | 1174.6 | 22.28
343.15 K | 1167.67 | 16.75

CN(CCO)CCO.CN(CCO)CCO.O=S(=O)(O)O [2,2'-(methylimino)diethanol sulfate (2:1)]
[1], 101.33 kPa
Settings | mass density [kg/m3] | viscosity [mPa·s]
303.15 K | 1282.49 | –
313.15 K | 1276.83 | 1858
323.15 K | 1271.25 | 990.8
333.15 K | 1265.72 | 571.2
343.15 K | 1260.24 | 350.4

CN(CCO)CCO.CN(CCO)CCO.O=S(=O)(O)O [2,2'-(methylimino)diethanol sulfate (2:1)] + O
[2]
Settings | mass density, 303.15 K [kg/m3] | mass density, 313.15 K [kg/m3] | mass density, 323.15 K [kg/m3] | mass density, 333.15 K [kg/m3] | mass density, 343.15 K [kg/m3] | viscosity, 303.15 K [mPa·s] | viscosity, 313.15 K [mPa·s] | viscosity, 323.15 K [mPa·s] | viscosity, 333.15 K [mPa·s] | viscosity, 343.15 K [mPa·s]
w1 = 0.2999 | 1091.95 | 1087.46 | 1082.24 | 1075.89 | 1068.32 | – | – | – | – | –
w1 = 0.3001 | – | – | – | – | – | 1.795 | 1.446 | 1.196 | 1.012 | 0.872

NCCO [2-aminoethan-1-ol] + O
[2], w1 = 0.3002
Settings | mass density [kg/m3] | viscosity [mPa·s]
303.15 K | 1013.02 | 2.093
313.15 K | 1007.98 | 1.603
323.15 K | 1003.42 | 1.271
333.15 K | 997.157 | 1.037
343.15 K | 989.924 | 0.8681

C[NH+](CCO)CCO.[Cl-] [2-hydroxy-N-(2-hydroxyethyl)-N-methylethanaminium chloride]
[1], 101.33 kPa
Settings | mass density [kg/m3] | viscosity [mPa·s]
303.15 K | 1180.42 | 512.1
313.15 K | 1174.71 | 278.2
323.15 K | 1169.24 | 164.2
333.15 K | 1163.75 | 104.1
343.15 K | 1158.29 | 70.45

C[NH+](CCO)CCO.[Cl-] [2-hydroxy-N-(2-hydroxyethyl)-N-methylethanaminium chloride] + O
[2]
Settings | mass density, 303.15 K [kg/m3] | mass density, 313.15 K [kg/m3] | mass density, 323.15 K [kg/m3] | mass density, 333.15 K [kg/m3] | mass density, 343.15 K [kg/m3] | viscosity, 303.15 K [mPa·s] | viscosity, 313.15 K [mPa·s] | viscosity, 323.15 K [mPa·s] | viscosity, 333.15 K [mPa·s] | viscosity, 343.15 K [mPa·s]
w1 = 0.3001 | – | – | – | – | – | 1.539 | 1.265 | 1.067 | 0.8862 | 0.7911
w1 = 0.3006 | 1058.44 | 1053.89 | 1049.23 | 1043.31 | 1037.05 | – | – | – | – | –

C[NH+](CCO)CCO.C[NH+](CCO)CCO.C[NH+](CCO)CCO.O=P([O-])([O-])[O-] [2-hydroxy-N-(2-hydroxyethyl)-N-methylethanaminium phosphate]
[1], 101.33 kPa
Settings | mass density [kg/m3] | viscosity [mPa·s]
303.15 K | 1215.95 | –
313.15 K | 1208.49 | 2483
323.15 K | 1200.88 | 1426
333.15 K | 1193.23 | 822.5
343.15 K | 1185.52 | 385.4

C[NH+](CCO)CCO.C[NH+](CCO)CCO.C[NH+](CCO)CCO.O=P([O-])([O-])[O-] [2-hydroxy-N-(2-hydroxyethyl)-N-methylethanaminium phosphate] + O
[2]
Settings | mass density, 303.15 K [kg/m3] | mass density, 313.15 K [kg/m3] | mass density, 323.15 K [kg/m3] | mass density, 333.15 K [kg/m3] | mass density, 343.15 K [kg/m3] | viscosity, 303.15 K [mPa·s] | viscosity, 313.15 K [mPa·s] | viscosity, 323.15 K [mPa·s] | viscosity, 333.15 K [mPa·s] | viscosity, 343.15 K [mPa·s]
w1 = 0.3001 | – | – | – | – | – | 2.63 | 2.125 | 1.805 | 1.594 | 1.455
w1 = 0.3007 | 1075.32 | 1070.31 | 1063.44 | 1055.39 | 1045.38 | – | – | – | – | –

F[B-](F)(F)F.[NH3+]CCO [2-hydroxyethanaminium tetrafluoroborate]
[1], 101.33 kPa
Settings | mass density [kg/m3]
303.15 K | 1490.57
313.15 K | 1482.62
323.15 K | 1474.94
333.15 K | 1467.85
343.15 K | 1464.59

[1], 101.33 kPa, Concentric cylinders viscometry
Settings | viscosity [mPa·s]
303.15 K | 59.39
313.15 K | 48.68
333.15 K | 32.85
343.15 K | 27.84

F[B-](F)(F)F.[NH3+]CCO [2-hydroxyethanaminium tetrafluoroborate] + O
[2], w1 = 0.3004
Settings | mass density [kg/m3] | viscosity [mPa·s]
303.15 K | 1116.48 | 1.007
313.15 K | 1110.85 | 0.8573
323.15 K | 1104.95 | 0.7412
333.15 K | 1098.99 | 0.6743
343.15 K | 1093.41 | 0.5896

CN(CCO)CCO [N-methyldiethanolamine]
[1], 101.33 kPa
Settings | mass density [kg/m3]
303.15 K | 1033.74
313.15 K | 1026.72
323.15 K | 1019.48
333.15 K | 1012.32
343.15 K | 1002.25

[1], 101.33 kPa, Concentric cylinders viscometry
Settings | viscosity [mPa·s]
303.15 K | 57.69
313.15 K | 34.79
323.15 K | 21.88
333.15 K | 14.6
343.15 K | 9.855

CN(CCO)CCO [N-methyldiethanolamine] + O
[2], w1 = 0.3002
Settings | mass density [kg/m3] | viscosity [mPa·s]
303.15 K | 1022.9 | 2.612
313.15 K | 1018 | 1.937
323.15 K | 1012.96 | 1.505
333.15 K | 1006.92 | 1.207
343.15 K | – | 0.8944

OCCN(CCO)CCO [triethanolamine]
[1], 101 kPa
Settings | mass density [kg/m3] | viscosity [mPa·s]
303.15 K | 1114.43 | 398.2
313.15 K | 1108.34 | 195.9
323.15 K | 1102.23 | 103.6
333.15 K | 1095.96 | 60.81
343.15 K | 1089.6 | 37.94

OCCN(CCO)CCO [triethanolamine] + CCCCn1cc[n+](C)c1.F[B-](F)(F)F
[2]
Settings | mass density, 303.15 K [kg/m3] | mass density, 313.15 K [kg/m3] | mass density, 323.15 K [kg/m3] | mass density, 333.15 K [kg/m3] | mass density, 343.15 K [kg/m3] | viscosity, 303.15 K [mPa·s] | viscosity, 313.15 K [mPa·s] | viscosity, 323.15 K [mPa·s] | viscosity, 333.15 K [mPa·s] | viscosity, 343.15 K [mPa·s]
w1 = 0.1998 | 1175.8 | 1168.63 | 1161.5 | 1154.44 | 1147.42 | 57.94 | 35.89 | 24.02 | 17.13 | 12.82
w1 = 0.3987 | 1161.1 | 1154.41 | 1146.93 | 1139.88 | 1132.87 | 69.54 | 39.71 | 25.08 | 17.08 | 12.32
w1 = 0.5005 | 1150.08 | 1142.89 | 1135.48 | 1128.12 | 1120.99 | 86.62 | 47.22 | 28.82 | 19.11 | 13.48
w1 = 0.6 | 1146.42 | 1139.61 | 1132.76 | 1125.89 | 1119 | 116.5 | 60.67 | 36.1 | 23.35 | 16.14
w1 = 0.7999 | 1129.56 | 1123.21 | 1116.73 | 1110.16 | 1103.54 | 186.3 | 99.43 | 54.02 | 33.63 | 22.33
w1 = 1 | 1114.43 | 1108.34 | 1102.23 | 1095.96 | 1089.6 | 398.2 | 195.9 | 103.6 | 60.81 | 37.94

OCCN(CCO)CCO [triethanolamine] + O
[2], w1 = 0.3
Settings | mass density [kg/m3] | viscosity [mPa·s]
303.15 K | 1042.75 | 2.354
313.15 K | 1037.93 | 1.799
323.15 K | 1032.21 | 1.425
333.15 K | 1023.74 | 1.172
343.15 K | 1011.68 | 0.9591
